Measured values: patent US20130274233A1, “MODULATORS OF HEDGEHOG SIGNALING PATHWAY” (priority 2012, published 2013)

Biological target: Smo::GFP (Homo sapiens, UniProt Q99835)
Assay: Ciliary accumulation of Smo::GFP upon overexpression (3T3/Smo::GFP Overexpression/Ivs::tagRFPT)
Format: cell-based
Conditions: stimulus none, read-out: IC50, inhibiton of ciliary accumulation of Smo::GFP upon overexpression
Description: Cells were cultured and treated in 384-well imaging plate precoated with poly-D-Lysine (Greiner Bio-one), fixed with 4% paraformaldehyde (Electron Microscopy Sciences), and stained with Hoechst (Invitrogen). Images were collected using Opera High Content Screening System (Perkin Elmer). Activityl)ase (IDBS Inc, Emeryvill, Calif.) and Pipeline Pilot (Accelrys, Inc. San Diego, Calif.) were used for high content screening data management and analysis. Acapella 2.0 software (Evotec Technologies/PerkinElmer) was used to perform multi-parametrical high content image quantification. All the images for comparison were scanned with identical microscopic settings and analyzed with the same input parameters.
Acapella 2.0 software (Evotec Technologies/PerkinElmer) was used to perform multi-parametric high content image quantification. Our image analysis script used Ivs::tagREPT to first determine the location of the PC and then Smo::EGFP to quantify the level of Smo present in the cilium.

Smo::GFP, sequence (Q99835 28-787): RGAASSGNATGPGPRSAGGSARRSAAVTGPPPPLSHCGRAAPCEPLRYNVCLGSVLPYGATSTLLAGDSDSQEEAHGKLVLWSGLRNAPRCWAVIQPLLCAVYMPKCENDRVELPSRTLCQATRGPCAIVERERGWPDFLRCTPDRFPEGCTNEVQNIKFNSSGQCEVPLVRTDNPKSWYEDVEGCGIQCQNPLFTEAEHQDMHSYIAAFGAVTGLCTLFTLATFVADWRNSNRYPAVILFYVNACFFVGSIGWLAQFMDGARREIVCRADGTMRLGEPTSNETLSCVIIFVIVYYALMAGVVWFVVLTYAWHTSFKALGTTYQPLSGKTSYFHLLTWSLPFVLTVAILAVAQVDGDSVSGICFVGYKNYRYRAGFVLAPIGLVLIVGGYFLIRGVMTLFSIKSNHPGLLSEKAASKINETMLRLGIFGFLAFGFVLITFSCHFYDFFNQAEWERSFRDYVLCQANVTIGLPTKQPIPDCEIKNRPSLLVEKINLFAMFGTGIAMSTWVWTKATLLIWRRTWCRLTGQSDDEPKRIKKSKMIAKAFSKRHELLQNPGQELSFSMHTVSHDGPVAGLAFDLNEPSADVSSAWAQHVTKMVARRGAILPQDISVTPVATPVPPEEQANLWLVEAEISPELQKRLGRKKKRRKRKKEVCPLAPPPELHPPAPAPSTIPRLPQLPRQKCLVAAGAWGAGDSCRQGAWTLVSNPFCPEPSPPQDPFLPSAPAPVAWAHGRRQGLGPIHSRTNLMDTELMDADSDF

IC50: 0.08 µM
Structure (SMILES): CCN(CC)c1ccc(/C=N/NC(=O)c2ccc(O)cc2)cc1 [DY131]
